# Source: patent US6541463B1, “Inhibitors of type 5 and type 3 17β-hydroxysteroid dehydrogenase and methods for their use” (Endorecherche, Inc., priority 1998, dated 2003)
# Molecular target: T1, glucocorticoid receptor (Rattus norvegicus, UniProt P06536)
# T1 construct: from tissue; host or cells: liver cytosol of male Sprague-Dawley rats
# T1 sequence (P06536 1-795): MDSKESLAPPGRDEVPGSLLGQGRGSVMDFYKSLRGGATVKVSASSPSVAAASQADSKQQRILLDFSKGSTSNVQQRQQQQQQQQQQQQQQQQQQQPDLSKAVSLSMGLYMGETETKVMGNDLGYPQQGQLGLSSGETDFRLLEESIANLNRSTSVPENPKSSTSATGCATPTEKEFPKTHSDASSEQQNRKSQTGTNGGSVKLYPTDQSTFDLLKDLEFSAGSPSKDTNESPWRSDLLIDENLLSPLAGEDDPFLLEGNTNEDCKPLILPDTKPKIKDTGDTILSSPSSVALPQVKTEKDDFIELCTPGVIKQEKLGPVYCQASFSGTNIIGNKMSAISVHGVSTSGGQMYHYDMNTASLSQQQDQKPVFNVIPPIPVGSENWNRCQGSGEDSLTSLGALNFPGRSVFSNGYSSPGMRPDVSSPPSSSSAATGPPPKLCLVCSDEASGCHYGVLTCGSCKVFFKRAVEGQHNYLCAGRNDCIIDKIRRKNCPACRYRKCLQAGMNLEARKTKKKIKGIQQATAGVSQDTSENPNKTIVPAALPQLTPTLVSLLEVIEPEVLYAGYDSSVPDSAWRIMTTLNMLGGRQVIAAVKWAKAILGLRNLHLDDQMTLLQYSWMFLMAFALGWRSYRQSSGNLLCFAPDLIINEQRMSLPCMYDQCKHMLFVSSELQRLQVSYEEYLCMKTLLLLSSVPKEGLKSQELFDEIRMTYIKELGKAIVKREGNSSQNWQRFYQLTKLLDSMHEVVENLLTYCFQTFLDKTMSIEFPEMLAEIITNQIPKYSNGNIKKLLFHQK
# Test: Glucocorticoid receptor assay: inhibition of [3H]-dexamethasone binding, liver cytosol
# Details: for inhibition at 1 µM / inhibition at 0.01 µM / % Inhibition Glucocorticold Receptor E^−6 / % Inhibition Glucocorticold Receptor E^−8: Table 4′; for inhibition at 1 µM: read-out: % Inhibition Glucocorticold Receptor E^−6; for inhibition at 0.01 µM: read-out: % Inhibition Glucocorticold Receptor E^−8
# Method: The manner in which the percentage of inhibition is determined is described in “Other Tests; F-Glucocorticoid Receptor Assay”.
# [6,7-^3H(N)]-Dexamethasone (39 Ci/mmol) was purchased from New England Nuclear (Lachine, Québec, Canada) while unlabeled dexametasone was obtained from Steraloids (Wilton, N.H.). All other chemicals were of analytical grade.
# Stock solutions of the unlabeled steroids were kept at 4° C. in ethanol. The desired steroid solutions were then prepared by appropriate dilution in buffer B (10 mM Tris-HCl, 1.5 mM EDTA, 10 mM α-monothioglycerol, pH 7.4) containing 30% ethanol.
# Male Sprague-Dawley rats weighing 200-300 g were obtained from Charles-River Inc. (St-Constant, Québec, Canada). The rats were killed by cervical dislocation and the liver were rapidly removed, dissected free from adhering tissue and frozen on dry-ice. Tissues were kept at −80° C. until use.
# All procedures were performed at 4° C. Tissues were eminced and homogenized in 10 vol (w/v) of buffer A (25 mM Tris-HCl, 1.5 mM EDTA, 10 mM α-monothioglycerol, 10% glycerol, 10 mM sodium molybdate, pH 7.4) using a Polytron PT-10 homogenizer (Brinkmann Instruments, Canada) at a setting of 5 for two periods of 10 sec, with intervals of 10 sec for cooling. The homogenate was then centrifuged at 105,000×g for 90 min. The supernatant was used immediately for assay.
# Glucocorticoid binding was measured using the dextran-coated charcoal adsorption technique. Incubations were performed at 0-4° C. for 16-18 h using 100 μl of cytosol, 100 μl of [^3H]-Dexamethasone (5 nM final) and 100 μl of unlabeled compounds at the indicated concentrations. Each concentration was done in triplicate. Assay was ended with 300 μl of DCC (2.5% Norit A and 0.25% Dextran T-70 in Buffer B). After 10 min of incubation, tubes were centrifuged at 2,000×g for 10 min. and decanted in vials with 6 ml of BCS liquid scintillation (New England Nuclear, Dupont). The radioactivity was measured in a Beckman counter at a counting efficiency of 35%.
compound,measurement,setting,value
CC1(C)CC[C@@]2(CCC3C4CCc5cc(F)ccc5C4CC[C@@]32C)OC1=O (stereo partly shown) [EM-1157-CS],inhibition at 1 µM,E^−6,0%
same,inhibition at 0.01 µM,E^−8,1%
"COCCOc1ccc2c(c1)CCC1C2CCC2(C)C1CCC21CCC(C)(C)C(=O)O1 [EM-1368-CS, 3-Methoxyethoxy-1,3,5(10)-estratrien-17(R)-spiro-2′-(5′,5′-dimethyl-6′-oxo)-tetrahydropyran]",inhibition at 1 µM,E^−6,3%
same,inhibition at 0.01 µM,E^−8,3%
COc1cc2c(cc1C)C1CCC3(C)C(CCC34CCC(C)(C)C(=O)O4)C1CC2 (stereo not shown) [EM-1412-CS],inhibition at 1 µM,E^−6,2%
same,inhibition at 0.01 µM,E^−8,0%
CC12C=CC(=O)C=C1C=CC1C2CCC2(C)C(=O)C3(CCCCC3)CC12 (stereo not shown) [CS-204],% Inhibition Glucocorticoid Receptor E^−6,E^−6,0%
same,% Inhibition Glucocorticoid Receptor E^−8,E^−8,0%
CC1(C)CC[C@@]2(CCC3C4CCc5cc(C(N)=O)ccc5C4CCC32C)OC1=O (stereo partly shown) [EM-1404],inhibition at 1 µM,E^−6,0%
same,inhibition at 0.01 µM,E^−8,0%
CC1(C)CCC2(CCC3C4CCc5cc(O)c([N+](=O)[O-])cc5C4CCC32C)OC1=O (stereo not shown) [EM-1125-CS],inhibition at 1 µM,E^−6,1%
same,inhibition at 0.01 µM,E^−8,0%
"COCCOc1cc2c(cc1C(F)(F)F)[C@H]1CC[C@@]3(C)[C@@H](CC[C@@]34CCC(C)(C)C(=O)O4)[C@@H]1CC2 [EM-1438, 3-(2′-Methoxyethoxy)-2-trifluoromethyl-1,3,5(10)-estratrien-17(R)-spiro-2′-(5′,5′-dimethyl-6′-oxo)tetrahydropyran]",% Inhibition Glucocorticold Receptor E^−6,E^−6,0%
same,% Inhibition Glucocorticold Receptor E^−8,E^−8,1%
COCCOc1cc2c(cc1Cl)C1CCC3(C)C(CCC34CCC(C)(C)C(=O)O4)C1CC2 (stereo not shown) [EM-1371-CS],inhibition at 1 µM,E^−6,0%
same,inhibition at 0.01 µM,E^−8,1%
CC(C)C[C@@H]1CC2C3C=CC4=CC(=O)CC[C@]4(C)C3CC[C@]2(C)C1=O (stereo partly shown) [EM-1273-CS],% Inhibition Glucocorticoid Receptor E^−6,E^−6,1%
same,% Inhibition Glucocorticoid Receptor E^−8,E^−8,0%
CC1(C)CCC2(CCC3C4CCc5ccccc5C4CCC32C)OC1=O (stereo not shown) [CS-224],inhibition at 1 µM,E^−6,5%
same,inhibition at 0.01 µM,E^−8,1%
CCCCN(C)C(=O)[C@@]1(OC(C)=O)CCC2C3C=C(C)C4=CC(=O)CC[C@]4(C)C3CC[C@@]21C (stereo partly shown) [EM-1165],% Inhibition Glucocorticoid Receptor,E^−6,26%
same,% Inhibition Glucocorticoid Receptor,E^−8,0%
"COCCOc1cc2c(cc1C(N)=O)C1CC[C@@]3(C)C(CC[C@@]34CCC(C)(C)C(=O)O4)C1CC2 (stereo partly drawn) [EM-1424, 2-Carbamoyl-3-(2″-methoxyethyloxy)-1,3,5(10)-estratrien 17(R)-spiro-2′-(5′,5′-dimethyl-6′-oxo)tetrahydropyran]",inhibition at 1 µM,E^−6,0%
same,inhibition at 0.01 µM,E^−8,0%
CCC(=O)O[C@]1(C(C)=O)CCC2C3C=C(C)C4=CC(=O)C[C@H](C)[C@]4(C)C3CC[C@@]21C (stereo partly shown) [CS-243],% Inhibition Glucocorticoid Receptor,E^−6,29%
same,% Inhibition Glucocorticoid Receptor,E^−8,0%
CCCC(=O)O[C@]1(C)C(=O)CCC2C3C=C(C)C4=CC(=O)CC[C@]4(C)C3CC[C@@]21C (stereo partly shown) [EM-1078],% Inhibition Glucocorticoid Receptor E^−6,E^−6,94%
same,% Inhibition Glucocorticoid Receptor E^−8,E^−8,20%
"CC1CCC2(CCC3C4CCc5cc(O)c([N+](=O)[O-])cc5C4CCC32C)OC1=O [EM-1126, 2-Nitro-1,3,5(10)-estratrien-3-ol-17(R)-spiro-2′-(5′-methyl-6′-oxo)tetrahydropyran]",% Inhibition Glucocorticold Receptor E^−6,E^−6,0%
same,% Inhibition Glucocorticold Receptor E^−8,E^−8,0%
CC1(C)CC[C@@]2(CC[C@H]3[C@@H]4CCc5c(cc(Br)c(O)c5Br)[C@H]4CC[C@@]32C)OC1=O [EM-1382-CS],% Inhibition Glucocorticold Receptor E^−6,E^−6,4%
same,% Inhibition Glucocorticold Receptor E^−8,E^−8,2%
"CC1(C)CCC2(CCC3C4CCc5cc(OCCN6CCCCC6)ccc5C4CCC32C)OC1=O [EM-1390-CS, 3-(N-piperidyl-ethyl)-1,3,5(10)-estratrien-17(R)-spiro-2′-(5′,5′-dimethyl-6′-oxo)-tetrahydropyran]",inhibition at 1 µM,E^−6,0%
same,inhibition at 0.01 µM,E^−8,2%
